Consider eight molecules from patent publication US11370794B2, “Toll-like receptor antagonist compounds and methods of use” (Dynavax Technologies Corporation, priority 2016, dated 2022).

What is called IC50 is the concentration at which inhibition is half-maximal.

Each structure is given as a SMILES string.

This experiment addresses T1, human TLR9 (Homo sapiens, UniProt Q9NR96).
T1 construct: endogenous in cells; host or cells: primary human B cells (CD19 microbeads) from buffy coats of healthy donors
T1 sequence (Q9NR96 26-1032): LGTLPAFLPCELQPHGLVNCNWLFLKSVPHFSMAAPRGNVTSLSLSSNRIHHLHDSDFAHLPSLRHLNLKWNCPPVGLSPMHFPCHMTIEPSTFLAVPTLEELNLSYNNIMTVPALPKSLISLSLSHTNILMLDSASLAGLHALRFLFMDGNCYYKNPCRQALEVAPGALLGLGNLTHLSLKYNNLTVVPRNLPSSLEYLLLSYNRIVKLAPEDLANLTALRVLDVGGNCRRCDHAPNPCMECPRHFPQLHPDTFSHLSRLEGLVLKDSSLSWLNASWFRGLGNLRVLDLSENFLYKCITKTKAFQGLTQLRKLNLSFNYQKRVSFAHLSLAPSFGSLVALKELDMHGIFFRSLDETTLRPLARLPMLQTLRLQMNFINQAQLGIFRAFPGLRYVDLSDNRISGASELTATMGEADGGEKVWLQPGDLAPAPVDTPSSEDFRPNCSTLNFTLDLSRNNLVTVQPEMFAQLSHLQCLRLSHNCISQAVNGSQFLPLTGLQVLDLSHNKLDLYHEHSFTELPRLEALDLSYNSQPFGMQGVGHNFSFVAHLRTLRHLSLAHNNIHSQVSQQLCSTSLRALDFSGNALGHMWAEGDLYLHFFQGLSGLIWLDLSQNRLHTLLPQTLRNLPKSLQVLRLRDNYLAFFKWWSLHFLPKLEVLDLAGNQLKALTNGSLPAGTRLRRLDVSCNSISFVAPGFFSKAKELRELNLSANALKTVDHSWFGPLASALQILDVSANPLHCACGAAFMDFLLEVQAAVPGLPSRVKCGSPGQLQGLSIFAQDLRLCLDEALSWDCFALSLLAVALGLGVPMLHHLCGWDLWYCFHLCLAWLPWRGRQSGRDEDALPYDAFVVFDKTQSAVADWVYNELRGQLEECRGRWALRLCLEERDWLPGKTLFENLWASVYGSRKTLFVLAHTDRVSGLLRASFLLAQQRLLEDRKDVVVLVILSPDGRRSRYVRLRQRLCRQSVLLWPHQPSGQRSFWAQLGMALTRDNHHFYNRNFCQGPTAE
As to the kind of experiment: Inhibition of human TLR9 in human B cells (IL-6 ELISA). The note with it: for IC50: human B cells, agonist 1018 ISS 1 μM, IL-6 readout, 48 hours, range about 0.01 to 10 μM, read-out: Human TLR9 IC50; for inhibits TLR9-dependent responses (in words): summary statement of the description. Type of experiment: cell-based. In outline: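 Primary human B cells (CD19-isolated from donor buffy coats), ~300,000 per well, treated with compound (about 0.01–10 μM, some 0.001–30 μM) then 1 μM CpG oligonucleotide 1018 ISS. After 48 hours at 37° C, supernatant IL-6 measured by ELISA; IC50 from concentration-response of TLR9-dependent activity.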

Turning to `Cc1ccc(-n2nc3c(N4CCC(CCC(=O)NCCN(C)C)CC4)nnc(C)c3c2C)cc1` [Compound No. 9, 3-(1-(3,4-dimethyl-2-(p-tolyl)-2H-pyrazolo[3,4-d]pyridazin-7-yl)piperidin-4-yl)-N-(2-(dimethylamino)ethyl)propanamide], the concentration for half-maximal inhibition (IC50) was 3 nM.

Consider `Cc1ccc(-n2nc3c(N4CCC(C(=O)NCCCc5c[nH]cn5)CC4)nnc(C)c3c2C)cc1` [Compound No. 6, N-(3-(1H-imidazol-4-yl)propyl)-1-(3,4-dimethyl-2-(p-tolyl)-2H-pyrazolo[3,4-d]pyridazin-7-yl)piperidine-4-carboxamide], for which the IC50 is 154 nM.

Regarding `Cc1ccc(-n2nc3c(N4CCC(C(=O)NCCCN(C)Cc5ccccc5)CC4)nnc(C)c3c2C)cc1` [Compound No. 1, N-(3-(benzyl(methyl)amino)propyl)-1-(3,4-dimethyl-2-(p-tolyl)-2H-pyrazolo[3,4-d]pyridazin-7-yl)piperidine-4-carboxamide], the IC50 is 40 nM and the “inhibits TLR9-dependent responses (in words)” value is “inhibit”.

As to `Cc1ccc(-n2nc3c(N4CCC(C(=O)NCCCN(C)C)CC4)nnc(C)c3c2C)cc1` [Compound No. 5, 1-(3,4-dimethyl-2-(p-tolyl)-2H-pyrazolo[3,4-d]pyridazin-7-yl)-N-(3-(dimethylamino)propyl)piperidine-4-carboxamide], the IC50 was found to be 40 nM and the “inhibits TLR9-dependent responses (in words)” value is listed as “inhibit”.

For `Cc1ccc(-n2nc3c(N4CCC(C(=O)NC5CN(C)C5)CC4)nnc(C)c3c2C)cc1` [Compound No. 3, 1-(3,4-dimethyl-2-(p-tolyl)-2H-pyrazolo[3,4-d]pyridazin-7-yl)-N-(1-methylazetidin-3-yl)piperidine-4-carboxamide], the IC50 amounted to 143 nM.

Consider `Cc1ccc(-n2nc3c(N4CCC(C(=O)N5CCN(Cc6ccccc6)CC5)CC4)nnc(C)c3c2C)cc1` [Compound No. 2, (4-benzylpiperazin-1-yl)(1-(3,4-dimethyl-2-(p-tolyl)-2H-pyrazolo[3,4-d]pyridazin-7-yl)piperidin-4-yl)methanone], for which the IC50 came to 242 nM and the “inhibits TLR9-dependent responses (in words)” value was “inhibit”.

Take `Cc1ccc(-n2nc3c(N4CCC(C(=O)NCC(C)(C)CNc5ccccc5)CC4)nnc(C)c3c2C)cc1` [2-1]: the IC50 was determined as 4650 nM.

Turning to `Cc1ccc(-n2nc3c(N4CCC(C(=O)NC5CN(Cc6ccccc6)C5)CC4)nnc(C)c3c2C)cc1` [Compound No. 4, N-(1-benzylazetidin-3-yl)-1-(3,4-dimethyl-2-(p-tolyl)-2H-pyrazolo[3,4-d]pyridazin-7-yl)piperidine-4-carboxamide], the IC50 was determined as 93 nM and the “inhibits TLR9-dependent responses (in words)” value is “inhibit”.
